Laboratory results from patent US20070037820A1, “Substituted piperazines as metabotropic glutamate receptor antagonists” (AstraZeneca AB, priority 2005, published 2007).

Target: T1, human mGluR5d (Homo sapiens, UniProt P41594)
T1 construct: expressed in transfected cells; host or cells: GHEK (Human Embryonic Kidney cells expressing glutamate transporter) for the IP3 assay
Assay: Functional assessment of mGluR5 antagonism in cell lines expressing mGluR5d (FLIPR calcium mobilization / IP3 turnover; which assay gave the values is not stated)
Assay type: cell-based
Details: cells expressing human mGluR5d; assay (FLIPR or IP3) not specified
Text: The pharmacological properties of the compounds of the invention can be analyzed using standard assays for functional activity. Examples of glutamate receptor assays are well known in the art as described in for example Aramori et al., Neuron 8:757 (1992), Tanabe et al., Neuron 8:169 (1992), Miller et al., J. Neuroscience 15: 6103 (1995), Balazs, et al., J. Neurochemistry 69:151 (1997). The methodology described in these publications is incorporated herein by reference. Conveniently, the compounds of the invention can be studied by means of an assay that measures the mobilization of intracellular calcium, [Ca^2+]i in cells expressing mGluR5.
Intracellular calcium mobilization was measured by detecting changes in fluorescence of cells loaded with the fluorescent indicator fluo-3. Fluorescent signals were measured using the FLIPR system (Molecular Devices). […]
FLIPR experiments were done using a laser setting of 0.800 W and a 0.4 second CCD camera shutter speed. […] After each addition of the compound, the fluorescence signal was sampled 50 times at 1 second intervals followed by 3 samples at 5 second intervals. Responses were measured as the peak height of the response within the sample period. […]
We have validated a secondary functional assay for mGluR5d based on Inositol Phosphate (IP3) turnover. IP3 accumulation is measured as an index of receptor mediated phospholipase C turnover. […]

T1 sequence (P41594 21-942 isoform P41594-3 limits assumed): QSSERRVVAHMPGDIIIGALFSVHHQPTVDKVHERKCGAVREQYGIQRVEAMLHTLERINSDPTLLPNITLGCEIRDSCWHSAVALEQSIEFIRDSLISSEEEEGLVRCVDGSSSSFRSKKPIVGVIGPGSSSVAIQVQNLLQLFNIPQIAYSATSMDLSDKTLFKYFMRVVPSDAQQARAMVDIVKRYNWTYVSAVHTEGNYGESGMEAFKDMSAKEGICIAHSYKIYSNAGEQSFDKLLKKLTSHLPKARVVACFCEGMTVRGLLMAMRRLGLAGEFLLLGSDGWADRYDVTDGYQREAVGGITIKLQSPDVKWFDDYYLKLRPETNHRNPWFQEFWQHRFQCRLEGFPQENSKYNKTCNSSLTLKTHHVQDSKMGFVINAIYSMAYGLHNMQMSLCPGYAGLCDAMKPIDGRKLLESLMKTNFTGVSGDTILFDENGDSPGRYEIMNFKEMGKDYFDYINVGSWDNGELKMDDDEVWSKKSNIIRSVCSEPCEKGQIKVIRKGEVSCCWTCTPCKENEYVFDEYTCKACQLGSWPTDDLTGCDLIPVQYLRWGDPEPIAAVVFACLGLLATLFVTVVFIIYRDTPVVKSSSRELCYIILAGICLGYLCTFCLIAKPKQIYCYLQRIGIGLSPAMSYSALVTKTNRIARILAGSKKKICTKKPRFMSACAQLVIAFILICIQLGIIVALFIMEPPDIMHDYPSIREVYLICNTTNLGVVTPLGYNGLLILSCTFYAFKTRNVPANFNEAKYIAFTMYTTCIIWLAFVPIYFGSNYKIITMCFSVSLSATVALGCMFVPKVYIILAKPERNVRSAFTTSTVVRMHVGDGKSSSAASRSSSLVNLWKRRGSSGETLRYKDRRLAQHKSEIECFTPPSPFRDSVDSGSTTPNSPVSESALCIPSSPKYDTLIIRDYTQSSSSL

| IC50 [nM] | Compound |
| --- | --- |
| 199 | N#Cc1ccc(N2CCN(Cc3cc(-c4cc(Cl)ccc4F)on3)CC2)nc1 [Example 16.1, 6-(4-{[5-(5-chloro-2-fluorophenyl)isoxazol-3-yl]methyl}piperazin-1-yl) nicotinonitrile] |
| 101 | CC(c1noc(-c2cccc(Cl)c2)n1)N1CCN(c2nccnc2C#N)CC1 (centres unmarked) [Example 15.11, 3-(4-{1-[5-(3-chlorophenyl)-1,2,4-oxadiazol-3-yl]ethyl}piperazin-1-yl) pyrazine-2-carbonitrile] |
